These results are taken from US9636339B2, “Phenyl-dihydropyridine derivatives as aldosterone synthase inhibitors” (Hoffmann-La Roche Inc., priority 2013, dated 2017).

SMILES strings stand for the structures.

One assay addresses human CYP11B1 (Homo sapiens (Human), UniProt P15538). Description: G-402 cellular enzyme assay, human CYP11B1 (cortisol release). The format is cell-based. Particulars: G-402 cells, 1 μM Deoxycortisol. The text has this:
(§1) Herein we identified the use of the G-402 cell line as a host cell to ectopically express (transiently or stably) enzymes of the CYP11 family. Specifically we developed stable G-402 cells expressing ectopically human CYP11B1, human CYP11B2, human CYP11A1, cynmolgus CYP11B1 or cynomolgus CYP11B2 enzyme activity. Importantly the identified cell line G-402 expresses co-factors (adrenodoxin and adrenodoxin reductase) important for the activity of the CYP11 family and no relevant enzyme activity of the CYP11 family (in comparison to H295R cells) was detected in these cells. Therefore the G-402 cell line is uniquely suited as a host cell for the ectopic expression of enzymes from the CYP11 family. G-402 cells can be obtained from ATCC (CRL-1440) and were originally derived from a renal leiomyoblastoma.
(§2) The expression plasmids contains the ORF for either human/cyno CYP11B1 or CYP11B2 under the control of a suitable promoter (CMV-promoter) and a suitable resistance marker (neomycin). Using standard techniques the expression plasmid is transfected into G-402 cells and these cells are then selected for expressing the given resistance markers. Individual cell-clones are then selected and assessed for displaying the desired enzymatic activity using 11-Deoxycorticosterone (Cyp11B2) or 11-Deoxycortisol (Cyp11B1) as a substrate.
(§3) G-402 cells expressing CYP11 constructs were established as described above and maintained in McCoy's 5a Medium Modified, ATCC Catalog No. 30-2007 containing 10% FCS and 400 μg/ml G418 (Geneticin) at 37° C. under an atmosphere of 5% CO2/95% air. Cellular enzyme assays were performed in DMEM/F12 medium containing 2.5% charcoal treated FCS and appropriate concentration of substrate (0.3-10 uM 11-Deoxycorticosterone, 11-Deoxycortisol or Corticosterone). For assaying enzymatic activity, cells were plated onto 96 well plates and incubated for 16 h. An aliquot of the supernatant is then transferred and analyzed for the concentration of the expected product (Aldosterone for CYP11B2; Cortisol for CYP11B1). The concentrations of these steroids can be determined using HTRF assays from CisBio analyzing either Aldosterone or Cortisol.
(§4) Inhibition of the release of produced steroids can be used as a measure of the respective enzyme inhibition by test compounds added during the cellular enzyme assay. The dose dependent inhibition of enzymatic activity by a compound is calculated by means of plotting added inhibitor concentrations (x-axes) vs. measured steroid/product level (y-axes). The inhibition is then calculated by fitting the following 4-parameter sigmoidal function (Morgan-Mercer-Flodin (MMF) model) to the raw data points using the least squares method:
(§5) [formula] wherein, A is the maximum y value, B is the EC50 factor determined using XLFit, C is the minimum y value and D is the slope value.
(§6) EC50 values for compounds claimed herein were tested with the G402-based assay system described. Cyp11B2 enzyme activity was tested in presence of 1 μM Deoxycorticosterone and variable amounts of inhibitors; Cyp11B1 enzyme activity was tested in presence of 1 μM Deoxycortisol and variable amounts of inhibitors.

Another assay has as its target human CYP11B2 (Homo sapiens (Human), UniProt P19099). The experiment in a line: G-402 cellular enzyme assay, human CYP11B2 (aldosterone release). The assay is classed as cell-based. Particulars: G-402 cells, 1 μM Deoxycorticosterone.
Text: as §1, §2, §3, §4, §5, §6

In assay [1] the test system is rat model of chronic kidney disease. Particulars: cited from earlier work; for plasma aldosterone: FAD286: 4 weeks of treatment, spironolactone: 4 and 8 weeks of treatment; for angiotensin II and salt-stimulated PAI-1 mRNA expression: aorta and heart; for renal effects of angiotensin II and high salt (albuminuria, azotemia, renovascular hypertrophy, glomerular injury, PAI-1, osteopontin mRNA, tubulointerstitial fibrosis): rat, in vivo.

Assay [2] relates to rats with experimental heart failure. Particulars: rat, in vivo; cited from earlier work.
Assay [3] has as its system patients with primary aldosteronism. Particulars: oral; cited from earlier work.

human CYP11B1, sequence (P15538 25-503): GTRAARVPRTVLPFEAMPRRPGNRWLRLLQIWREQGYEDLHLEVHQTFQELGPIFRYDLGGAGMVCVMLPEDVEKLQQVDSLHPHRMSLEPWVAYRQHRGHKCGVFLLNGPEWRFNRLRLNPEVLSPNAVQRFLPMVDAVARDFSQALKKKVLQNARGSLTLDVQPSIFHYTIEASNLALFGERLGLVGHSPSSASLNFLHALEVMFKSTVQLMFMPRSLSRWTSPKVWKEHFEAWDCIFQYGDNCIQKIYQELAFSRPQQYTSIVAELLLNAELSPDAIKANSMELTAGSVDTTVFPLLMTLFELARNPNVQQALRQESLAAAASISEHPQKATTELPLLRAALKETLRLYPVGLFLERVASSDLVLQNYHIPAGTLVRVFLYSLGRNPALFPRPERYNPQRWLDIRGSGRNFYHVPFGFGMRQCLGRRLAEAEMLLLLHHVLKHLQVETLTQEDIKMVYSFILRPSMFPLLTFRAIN
human CYP11B2, sequence (P19099 25-503): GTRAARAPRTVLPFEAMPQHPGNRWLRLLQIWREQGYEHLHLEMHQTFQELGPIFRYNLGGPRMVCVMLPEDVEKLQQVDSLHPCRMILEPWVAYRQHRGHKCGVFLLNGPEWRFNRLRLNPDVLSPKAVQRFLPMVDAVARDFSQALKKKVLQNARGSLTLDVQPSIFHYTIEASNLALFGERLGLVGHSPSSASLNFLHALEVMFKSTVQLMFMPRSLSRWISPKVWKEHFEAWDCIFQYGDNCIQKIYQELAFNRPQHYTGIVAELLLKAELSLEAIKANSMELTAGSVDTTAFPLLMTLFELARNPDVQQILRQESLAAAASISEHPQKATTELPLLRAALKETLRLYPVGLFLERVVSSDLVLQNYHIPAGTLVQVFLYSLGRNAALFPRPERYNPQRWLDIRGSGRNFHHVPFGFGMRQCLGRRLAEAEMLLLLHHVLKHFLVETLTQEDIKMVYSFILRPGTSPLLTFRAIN

By EC50 is commonly meant the concentration needed to bring the measured effect to its halfway point. For `OCCC1CCCc2c(-c3ccc(C(F)(F)F)cc3F)cncc21` (racemic) [Example 24, (rac)-2-[4-[2-Fluoro-4-(trifluoromethyl)phenyl]-5,6,7,8-tetrahydroisoquinolin-8-yl]ethanol], the concentration for a half-maximal effect (EC50) amounted to 85 nM on human CYP11B1 and 5 nM at human CYP11B2.
Regarding `CNC(=O)CC1CCCc2c(-c3ccc(C(F)(F)F)cc3F)cncc21` (racemic) [Example 25, (rac)-2-[4-[2-Fluoro-4-(trifluoromethyl)phenyl]-5,6,7,8-tetrahydroisoquinolin-8-yl]-N-methyl-acetamide], the concentration giving a half-maximal response (EC50) stood at 1040 nM on human CYP11B1 and 11 nM on human CYP11B2.
Regarding `CN(C)C(=O)CC1CCCc2c(-c3ccc(C(F)(F)F)cc3F)cncc21` (racemic) [Example 26, (rac)-2-[4-[2-Fluoro-4-(trifluoromethyl)phenyl]-5,6,7,8-tetrahydroisoquinolin-8-yl]-N,N-dimethyl-acetamide], the 50% effective concentration (EC50) turned out to be 3080 nM on human CYP11B1 and 32 nM on human CYP11B2.
Consider `CCNC(=O)CC1CCCc2c(-c3ccc(C(F)(F)F)cc3F)cncc21` (racemic) [Example 29, (rac)-N-Ethyl-2-[4-[2-fluoro-4-(trifluoromethyl)phenyl]-5,6,7,8-tetrahydroisoquinolin-8-yl]acetamide], for which the EC50 at human CYP11B1 was 4080 nM; on human CYP11B2, 212 nM.
Consider `O=C(CC1CCCc2c(-c3ccc(C(F)(F)F)cc3F)cncc21)NC1CC1` (racemic) [Example 30, (rac)-N-Cyclopropyl-2-[4-[2-fluoro-4-(trifluoromethyl)phenyl]-5,6,7,8-tetrahydroisoquinolin-8-yl]acetamide], for which the EC50 at human CYP11B1 was 448 nM; on human CYP11B2 it was 37 nM.
Consider `O=C(CC1CCCc2c(-c3ccc(C(F)(F)F)cc3F)cncc21)NCC1CC1` (racemic) [Example 31, (rac)-N-(Cyclopropylmethyl)-2-[4-[2-fluoro-4-(trifluoromethyl)phenyl]-5,6,7,8-tetrahydroisoquinolin-8-yl]acetamide], for which the concentration giving a half-maximal response (EC50) was 1780 nM on human CYP11B1 and 71 nM on human CYP11B2.
Regarding `COCCNC(=O)CC1CCCc2c(-c3ccc(C(F)(F)F)cc3F)cncc21` (racemic) [Example 32, (rac)-2-[4-[2-Fluoro-4-(trifluoromethyl)phenyl]-5,6,7,8-tetrahydroisoquinolin-8-yl]-N-(2-methoxyethyl)acetamide], the concentration giving a half-maximal response (EC50) on human CYP11B1 worked out at 5060 nM; on human CYP11B2 it was 222 nM.
On to `CN(C)C(=O)CC1CCCc2c(-c3ccc(C(F)(F)F)cc3F)cncc21` (single isomer, unassigned; (+)) [Example 27, (+)-(R or S)-2-[4-[2-fluoro-4-(trifluoromethyl)phenyl]-5,6,7,8-tetrahydroisoquinolin-8-yl]-N,N-dimethyl-acetamide], for which the EC50 was 1490 nM on human CYP11B1 and 36 nM at human CYP11B2.
As for `CN(C)C(=O)CC1CCCc2c(-c3ccc(C(F)(F)F)cc3F)cncc21` (single isomer, unassigned; (-)) [Example 28, (−)-(R or S)-2-[4-[2-fluoro-4-(trifluoromethyl)phenyl]-5,6,7,8-tetrahydroisoquinolin-8-yl]-N,N-dimethyl-acetamide], the EC50 amounted to 9110 nM on human CYP11B1 and 133 nM on human CYP11B2.
Take `N#Cc1ccc([C@H]2CCCc3cncn32)cc1` [FAD286]: in assay [1], the plasma aldosterone entry is “reduced”; the “angiotensin II and salt-stimulated PAI-1 mRNA expression” value was “not”; the “renal effects of angiotensin II and high salt (albuminuria, azotemia, renovascular hypertrophy, glomerular injury, PAI-1, osteopontin mRNA, tubulointerstitial fibrosis)” value is “prevented”. In addition, in assay [2], the “blood pressure and cardiovascular function and structure” value is on record as “improved”; the “kidney function and morphology” value is listed as “improve”.
Take `N#Cc1ccc([C@H]2CCc3cncn32)c(F)c1` [LCI699]: in assay [3], the blood pressure result is reported as “mildly decreased”, the circulating aldosterone levels entry is on record as “significantly lower” and the hypokalemia entry is “corrected”.
As for `CC(=O)S[C@@H]1CC2=CC(=O)CC[C@]2(C)[C@H]2CC[C@@]3(C)[C@@H](CC[C@@]34CCC(=O)O4)[C@H]12` [spironolactone], in assay [1], the plasma aldosterone result is reported as “increased”; the “angiotensin II and salt-stimulated PAI-1 mRNA expression” value is listed as “enhanced”; the “renal effects of angiotensin II and high salt (albuminuria, azotemia, renovascular hypertrophy, glomerular injury, PAI-1, osteopontin mRNA, tubulointerstitial fibrosis)” value is on record as “prevented”.
